Literature values as cited in patent publication US8221792B2 (Farnam Companies, Inc., priority 2005, dated 2012).
Counter-ions that a name gives are not always drawn. Like-named read-outs stand apart in the source and are kept apart here.

What was measured:
[1] = in human
[2] = in dogs
[3] = in vivo

For `COc1cccc([C@@]2(O)CCCC[C@@H]2CN(C)C)c1` (racemic) [tramadol, rac-(1R,2R)-2-(dimethylaminomethyl)-1-(3-methoxyphenyl)-cyclohexanol], the half-life [1] is given as 5.6 to 7.0 h and the half-life [2] is given as 0.8 to 1.7 h.

In the case of `NCC1(CC(=O)O)CCCCC1` [Gabapentin], the elimination half-life [3] is given as 5 to 7 h.

For `COc1cccc(C2(O)CCCCC2CN(C)C)c1` (centres unmarked) [Tramadol HCl], the solubility in water is listed as “freely soluble” and the solubility in water (listed as tramadol hydrochloric acid salt) is listed as “highly water soluble”.
